Assay results: patent US20260253701A1, “EEG BIOMARKERS FOR ALPHA5 PAM DOSAGE DETERMINATION AND THERAPEUTIC MONITORING” (priority 2022, published 2026)

Columns and labels:
α5 subunit receptors [1] = target: T1, α5 subunit receptors (Homo sapiens, UniProt P18507+P31644); settings: 3 μM; higher levels more strongly target α1, α2, & α3 subunit receptors; cited from earlier work
Target sequence in this assay (P28472 26-473): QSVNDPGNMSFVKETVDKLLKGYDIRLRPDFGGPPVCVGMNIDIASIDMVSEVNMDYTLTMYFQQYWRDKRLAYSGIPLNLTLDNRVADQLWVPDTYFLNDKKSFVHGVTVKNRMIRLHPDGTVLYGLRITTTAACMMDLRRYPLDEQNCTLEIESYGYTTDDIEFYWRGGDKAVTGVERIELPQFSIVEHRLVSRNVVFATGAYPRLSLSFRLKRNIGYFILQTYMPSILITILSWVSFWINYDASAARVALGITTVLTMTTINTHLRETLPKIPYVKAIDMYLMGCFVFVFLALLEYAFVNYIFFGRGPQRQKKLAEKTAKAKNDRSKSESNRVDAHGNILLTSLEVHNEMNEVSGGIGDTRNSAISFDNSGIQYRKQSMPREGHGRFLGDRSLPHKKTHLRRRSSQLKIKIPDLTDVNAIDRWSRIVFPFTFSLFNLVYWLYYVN
Target sequence in this assay (P18507 40-467): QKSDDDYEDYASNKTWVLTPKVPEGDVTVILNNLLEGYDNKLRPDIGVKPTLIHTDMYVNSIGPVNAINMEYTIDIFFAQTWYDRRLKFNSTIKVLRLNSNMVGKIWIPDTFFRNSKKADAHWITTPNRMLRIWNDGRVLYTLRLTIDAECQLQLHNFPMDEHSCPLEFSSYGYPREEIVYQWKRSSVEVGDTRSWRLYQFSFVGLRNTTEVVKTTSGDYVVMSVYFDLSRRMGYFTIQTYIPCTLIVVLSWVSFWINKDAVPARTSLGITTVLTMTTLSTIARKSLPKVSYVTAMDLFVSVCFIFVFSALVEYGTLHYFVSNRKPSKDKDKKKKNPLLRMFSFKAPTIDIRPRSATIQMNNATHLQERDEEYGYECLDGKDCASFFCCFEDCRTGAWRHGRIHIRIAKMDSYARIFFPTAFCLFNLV
Target sequence in this assay (P31644 32-462): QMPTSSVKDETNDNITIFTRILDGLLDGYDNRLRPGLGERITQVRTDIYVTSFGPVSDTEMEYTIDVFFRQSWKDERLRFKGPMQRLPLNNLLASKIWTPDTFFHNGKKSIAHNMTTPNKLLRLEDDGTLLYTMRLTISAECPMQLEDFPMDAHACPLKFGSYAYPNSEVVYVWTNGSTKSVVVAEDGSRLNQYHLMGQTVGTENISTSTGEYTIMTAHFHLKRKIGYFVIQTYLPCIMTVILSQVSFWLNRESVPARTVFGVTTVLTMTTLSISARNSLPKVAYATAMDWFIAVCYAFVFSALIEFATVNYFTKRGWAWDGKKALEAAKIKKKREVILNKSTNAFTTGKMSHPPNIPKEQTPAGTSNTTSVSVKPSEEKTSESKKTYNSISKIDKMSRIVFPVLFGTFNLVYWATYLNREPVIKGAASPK

[2] = system: chronically stressed mice; settings: mouse, in vivo; cited from earlier work
α5 subunit receptors [3] = target: T1, α5 subunit receptors; experiment: whole-cell voltage-clamp recordings of tonic inhibition current in human cortical L2/3 Pyr neurons; format: cell-based; parameters: Neocortical tissue resected during tumor resection and anterior temporal lobectomy; from tissue; host or cells: human neocortical slices (resected frontal/temporal lobe tissue), L2/3 pyramidal neurons
Source text: Electrophysiology Data. We used whole-cell voltage-clamp recordings of baseline tonic inhibition current and tonic inhibition current during exposure to α5-PAM in human cortical L2/3 Pyr neurons (10 cells: 9 cells from 3 male subjects, 1 cell from 1 subject) from patients undergoing a standard anterior temporal lobectomy or tumor resection from the frontal or temporal lobe. Written informed consent was obtained from all participants, in accordance with the Declaration of Helsinki and the University Health Network Research Ethics board.
The data was collected using surgery resection, solutions, tissue preparation, and recording equipment described in Chameh et al., 2021 Nature Communications, 12(1), 2497 and Yao et al., 2022 Cell Reports, 38(2). Neocortical tissue resected during tumor resection and anterior temporal lobectomy was immediately submerged in ice-cold (~4° C.) cutting solution and transferred to a recording chamber within 20 minutes.
For recordings, slices were transferred to a recording chamber mounted on a fixed-stage upright microscope (Axioskop 2 FS MOT; Carl Zeiss, Germany). Slices were continually perfused at 4 ml/min with standard aCSF at 32-34° C. Whole-cell patch-clamp recordings were obtained using a Multiclamp 700 A amplifier, Axopatch 200B amplifier, and pClamp 9.2 and pClamp 10.6 data acquisition software (Axon instruments, Molecular Devices, USA). Subsequently, electrical signals were digitized at 20 kHz using a 1320X digitizer. For voltage-clamp recordings of tonic current, low-resistance patch pipettes (2-4 MΩ) were filled with a CsCl-based solution containing (in mM) 140 CsCl, 10 EGTA, 10 Hepes, 2 MgCl2, 2 Na2ATP, 0.3 GTP, and 5 QX314 adjusted to pH 7.3 with CsOH. The junction potential was calculated to be 4.3 mV and the holding potential was-74.3 mV after junction potential correction. In this configuration, 5 μM GABA, 25 μM AP5, 10 μM CNQX, and 10 μM CGP-35348 were first applied to generate larger GABA-dependent currents and assess baseline tonic inhibition currents while also blocking AMPA, NMDA, and GABAB mediated currents. […]
Target sequence in this assay (P31644 32-462): as above
Target sequence in this assay (P28472 26-473, further chain): as the sequence (P28472 26-473) above
Target sequence in this assay (P18507 40-467): as the sequence (P18507 40-467) above

## C#Cc1ccc2c(c1)C(c1ccccc1F)=N[C@H](C)c1c(C(=O)N(C)C)ncn1-2 [α5-PAM, GL-II-73]
α5 subunit receptors [1]
  subunit selectivity: selectively targeting α5 subunit receptors
[2]
  effect in chronically stressed mice: pro-cognitive effects
α5 subunit receptors [3]; 3 μM with 5 μM GABA, ± standard error of the mean, n=10 cells, baseline 65.86±10.28
  mean amplitude of tonic inhibitory current relative to endogenous current in picrotoxin condition: 95.28±14.52 pA
α5 subunit receptors [3]; therapeutically relevant dose (3 μM) of α5-PAM in addition to GABA, mean±standard deviation, GABA alone −65.9±30.8
  tonic inhibition current magnitude: −95.3±43.6 pA
α5 subunit receptors [3]; α5-PAM in addition to GABA vs GABA alone
  increase in current magnitude: 52%
